In EP4744648A1, “LIPOPEPTIDE-CONTAINING FAT-DISSOLVING PRODUCT, AND PREPARATION METHOD THEREFOR AND USE THEREOF” (Bloomage Biotechnology Corporation Limited, priority 2023, dated 2024):

Legend:
[1] = Surface tension at serial dilutions (CMC value determination), automatic interfacial tensiometer; format: physicochemical
Protocol: A 0.1% surfactin HXRZ solution and a sodium deoxycholate solution were separately prepared using purified water, followed by serial dilution to obtain different gradient concentrations. The surface tensions at different concentrations were determined respectively via a JZ-200A automatic interfacial tensiometer. Table 1 CMC value determination results

[2] = tested on: Mouse adipocyte cell line 3T3-F442A; assay: In vitro cytotoxicity test: relative growth rate of cells by CCK-8; format: cell-based
Protocol: In accordance with GB/T 16886.5 Biological evaluation of medical devices-Part 5: In vitro cytotoxicity tests (GB/T 16886.5-2017/ISO 10993-5:2009, IDT), and the test was performed with reference to the methods specified therein. The detailed experimental procedures are as follows:
Mouse adipocyte cell line 3T3-F442A in the logarithmic growth phase was seeded into a 96-well plate at a density of 1×10^5 cells/mL, with 100 µL per well. The culture medium consisted of a basal culture medium supplemented with 10% fetal bovine serum. The seeded cells were incubated conventionally in a carbon dioxide incubator at 37°C and 5% CO2 for 24 h.
The solution was freshly prepared before use.
After routine incubation for 24 h, the old culture medium was discarded, and then 100 µL of sample solution was added to replace it in the experimental group. An equal volume of serum-free culture medium was added to the normal control group. Each concentration was set up with at least three replicate wells.
After another incubation for 24 h, the relative growth rate of cells was detected by CCK-8. The culture medium was discarded, 100 µL of CCK-8 diluted 10-fold with the serum-free medium was added to each well. The plate was incubated in a cell incubator for another 2 h. The absorbance was determined using a microplate reader at a wavelength of 450 nm. The relative growth rate (RGR) is a ratio of the absorbance of the experimental group to the absorbance of the normal control group.
The experimental procedures in Example 3 were the same as those in Example 2 except that treatment durations were 0.5 h, 4 h and 24 h. The determination results of the relative growth rates of 3T3-F442A cells treated with surfactin HXRZ and sodium deoxycholate for different durations are shown in Table 3. Table 3 Relative growth rate (%)
3T3-F442A mouse adipocytes in the logarithmic growth phase were seeded into a 96-well plate at a density of 1 × 10^5 cells/mL, with 100 µL per well. After incubation for 24 h, the culture medium was replaced with 100 µL of culture medium containing different concentrations of samples. An equal volume of serum-free culture medium was added to the blank control group, and the incubation was continued for another 24 h. The relative growth rate of cells was determined by CCK-8. The blank control was set as 100%, the relative growth rate and half inhibitory concentration of each group were calculated. The method was the same as that in Example 2.

[3] = tested on: transgenic obese (ob/ob) mice; assay: Degradation of gluteal adipose tissue after injection into adipose pads of the left buttock (H-E sections, site observation); format: in vivo; settings: Example 4, 1 %
Protocol: 6-week-old transgenic obese (ob/ob) mice were used as the animal model. Different drugs were injected into the adipose pads of the left buttock. The mice were totally divided into three groups with 7-10 mice per group, as specified below. • 1) Negative control group: injected with 200 µL of sterile normal saline; • 2) 1% sodium deoxycholate group: injected with 200 µL of sterile normal saline solution containing 1% sodium deoxycholate; • 3) 0.1% surfactin HXRZ group: injected with 200 µL of sterile normal saline solution containing 0.1% surfactin HXRZ.
The day of the first administration was defined as Day 1 of the experiment. Additional administrations were performed on Day 3 and Day 5, respectively. The general condition and administration sites of the mice were observed regularly throughout the experiment. On Day 21 of the experiment, the mice were sacrificed and dissected. The adipose tissue of the left buttock was isolated, fixed immediately in adipose tissue fixative, and then embedded in paraffin. The adipose tissue was stained by hematoxylin and eosin staining for pathological examination, followed by observation and analysis under an optical microscope.
Specifically, 6-week-old transgenic obese (ob/ob) mice were used as the animal model, with one mouse per group. 200 µL each of 0.5% and 1% surfactin HXRZ normal saline solutions (test samples) were injected into the adipose pads of the left buttock, respectively. The day of the first administration was defined as Day 1 of the experiment. Additional administrations were performed on Day 3 and Day 5, respectively. The general condition and administration sites of the mice were observed regularly throughout the experiment. On Day 21 of the experiment, the mice were sacrificed and dissected. The adipose tissue of the left buttock of the mice was isolated, fixed immediately in adipose tissue fixative, and then embedded in paraffin. The adipose tissue was stained by hematoxylin and eosin staining for pathological examination, followed by observation and analysis under an optical microscope.

Kunming mice [4] = assay: Preliminary study on degradation of inguinal adipose tissue, subcutaneous injection once every 7 days; format: in vivo; settings: for ulceration at the administration sites: 200 µL s.c. left inguinal, after two administrations, n = 3
Protocol: Administration was performed once every 7 days. […] 7-9.

Kunming mice [5] = assay: Efficacy and side effects on degradation of inguinal adipose tissue, subcutaneous injection once every 14 days; format: in vivo; settings: 1 %; for Adipocyte density (n/mm^2): day 42, M±SEM
Protocol: The adipocyte density was then calculated.
Table 6 Local inflammation in mice of each group

Female Kunming mice = assay: Animal experiment comparing surfactin-C14 and surfactin-C15: subcutaneous injection in right inguinal region, four administrations; format: in vivo
Text: The higher drug concentration indicated the more obvious effect.

[6] = Observation of solubility in water; format: physicochemical; settings: added to water; room temperature
[7] = tested on: Mouse adipocyte cell line 3T3-F442A; assay: In vitro cytotoxicity test: relative growth rate of cells by CCK-8; format: cell-based; settings: 0.5 mg/mL
[8] = 10 mg/mL, four administrations, H-E sections

In the case of Sodium deoxycholate, the Surface tension value ([1]; solution concentration 0.00078125 % in purified water) is reported as 68.51 mN/m, the Surface tension value ([1]; solution concentration 0.0015625 % in purified water) is reported as 66.57 mN/m and the Surface tension value ([1]; solution concentration 0.003125 % in purified water) is reported as 65.06 mN/m. The Surface tension value ([1]; solution concentration 0.00625 % in purified water) was 63.17 mN/m, the Surface tension value ([1]; solution concentration 0.0125 % in purified water) was 60.50 mN/m and the Surface tension value ([1]; solution concentration 0.025 % in purified water) was 57.94 mN/m. It also gave a Surface tension value ([1]; solution concentration 0.05 % in purified water) of 55.40 mN/m, a Surface tension value ([1]; solution concentration 0.1 % in purified water) of 53.47 mN/m and a Surface tension value ([1]; solution concentration 0.1 % in purified water, listed as sodium deoxycholate) of 53 mN/m. For the same substance, the “treatment time at which adipocytes were completely lysed” value ([2]; 0.5 mg/mL) was 0.5 h, the “half maximal inhibitory concentrations IC50” value ([2]; 3T3-F442A adipocytes, 24 h, calculated from Table 2 curves) was 260.5 µg/mL and the “Relative growth rate (%)” value ([2]; Example 2, 0.125 mg/mL, 24 h, 3T3-F442A) was 98.64±1.74%. The “Relative growth rate (%)” value ([2]; Example 2, 0.25 mg/mL, 24 h, 3T3-F442A) was 55.58±3.66%, the “Relative growth rate (%)” value ([2]; Example 2, 0.3 mg/mL, 24 h, 3T3-F442A) was 23.83±3.45% and the “Relative growth rate (%)” value ([2]; Example 2, 0.4 mg/mL, 24 h, 3T3-F442A) was 10.92±0.48%. For the same substance, the “Relative growth rate (%)” value ([2]; Example 2, 0.5 mg/mL, 24 h, 3T3-F442A) was 10.7±0.11%, the “Relative growth rate (%)” value ([2]; Example 3, 0.3 mg/mL, 0.5 h) was 71.17±4.00% and the “Relative growth rate (%)” value ([2]; Example 3, 0.3 mg/mL, 4 h) was 61.46±9.30%. For the same substance, the “Relative growth rate (%)” value ([2]; Example 3, 0.3 mg/mL, 24 h) was 10.70±3.45%, the “Relative growth rate (%)” value ([2]; Example 3, 0.4 mg/mL, 0.5 h) was 28.78±6.59% and the “Relative growth rate (%)” value ([2]; Example 3, 0.4 mg/mL, 4 h) was 23.81±1.24%. The “Relative growth rate (%)” value ([2]; Example 3, 0.4 mg/mL, 24 h) was 10.92±0.48%, the “Relative growth rate (%)” value ([2]; Example 3, 0.5 mg/mL, 0.5 h) was 12.78±0.67% and the “Relative growth rate (%)” value ([2]; Example 3, 0.5 mg/mL, 4 h) was 17.24±0.02%. For the same substance, the “Relative growth rate (%)” value ([2]; Example 3, 0.5 mg/mL, 24 h) was 10.69±0.11%, the “degradation of adipose tissue at the administration sites (H-E sections, FIG. 5)” value ([3]; 200 µL in normal saline, left buttock, Days 1, 3, 5, Day 21) was “induced the degradation of adipose tissue at the administration sites” and the “mice with obvious induration palpable at the administration sites” value ([3]; 200 µL, 7-10 mice per group) was “three”. The “mice with ulceration at the administration site” value ([3]; 200 µL, 7-10 mice per group) was “one”, the “ulceration at the administration sites” value (Kunming mice [4]; 1 %) was “visible ulceration was observed at the administration sites” and the healing of ulceration (Kunming mice [4]; 1 %, after a 7-day administration interval) was “healed completely”. The “ulceration at the administration sites” value (Kunming mice [4]; 2 %) was “ulceration occurred at the administration sites in all mice”, the healing of ulcers (Kunming mice [4]; 2 %, within the subsequent 7 days) was “failed to heal” and the “Adipose tissue weight” value (Kunming mice [5]; 200 µL s.c. left inguinal, once every 14 days, day 42, n = 9) was 0.1889 ± 0.0270 g. The “Adipocyte density (n/mm^2)” value (Kunming mice [5]; 200 µL s.c.) was 727.84±56.64 n/mm^2, the “Adipocyte density (n/mm^2)” value (Kunming mice [5]; 200 µL s.c., listed as sodium deoxycholate) was 727.84±56.64 n/mm^2 and the “Fat index (%)” value (Kunming mice [5]; 200 µL s.c., day 42, treated-side inguinal adipose weight/body weight × 100%) was 0.49±0.07 %. For the same substance, the “Subcutaneous nodule and induration” value (Kunming mice [5]; Day 1, number of mice (n = 9)) was 0, the Ulceration (Kunming mice [5]; Day 1, number of mice (n = 9)) was 0 and the “Subcutaneous nodule and induration” value (Kunming mice [5]; Day 7, number of mice (n = 9)) was 0. For the same substance, the Ulceration (Kunming mice [5]; Day 7, number of mice (n = 9)) was 2, the “Subcutaneous nodule and induration” value (Kunming mice [5]; Day 14, number of mice (n = 9)) was 2 and the Ulceration (Kunming mice [5]; Day 14, number of mice (n = 9)) was 0. The “Subcutaneous nodule and induration” value (Kunming mice [5]; Day 21, number of mice (n = 9)) was 8, the Ulceration (Kunming mice [5]; Day 21, number of mice (n = 9)) was 0 and the “Subcutaneous nodule and induration” value (Kunming mice [5]; Day 28, number of mice (n = 9)) was 5. The Ulceration (Kunming mice [5]; Day 28, number of mice (n = 9)) was 0, the “Subcutaneous nodule and induration” value (Kunming mice [5]; Day 35, number of mice (n = 9)) was 4 and the Ulceration (Kunming mice [5]; Day 35, number of mice (n = 9)) was 0. For the same substance, the “Subcutaneous nodule and induration” value (Kunming mice [5]; Day 42, number of mice (n = 9)) was 4, the Ulceration (Kunming mice [5]; Day 42, number of mice (n = 9)) was 0 and the “ulceration at the administration sites over the administration cycle” value (Kunming mice [5]; entire administration cycle) was “ulceration was observed at the administration sites”. The “Incidence of local adverse reactions, Fourth administration” value (Female Kunming mice; 10 mg/mL, 200 µL s.c.) was 83.33%, the “Incidence of local adverse reactions, Second administration” value (Female Kunming mice; 10 mg/mL, 200 µL s.c.) was 75.00% and the “Incidence of local adverse reactions, Third administration” value (Female Kunming mice; 10 mg/mL, 200 µL s.c.) was 66.67%. The “Incidence of local adverse reactions, First administration” value (Female Kunming mice; 10 mg/mL, 200 µL s.c., percentage of mice with abnormalities at the administration site) was 62.50%, the “Mean wet adipose tissue weight/body weight percentage (x±SEM, %)” value (Female Kunming mice; 10 mg/mL, four administrations) was 0.57±0.05 % and the “Mean wet adipose tissue weight (x±SEM, unit: g)” value (Female Kunming mice; 10 mg/mL, four administrations once every 14 days, right inguinal) was 0.224 ± 0.022 g. For the same substance, the “Mean adipocyte area (x±SEM, mm^2)” value (Female Kunming mice; [8]) was 0.003751±0.000614 mm^2, the “Mean adipocyte density (x±SEM, n/mm^2)” value (Female Kunming mice; [8]) was 322.3211±55.3047 n/mm^2 and the “incidence of adverse reactions” value (Female Kunming mice; over all four administrations, except first administration in the HXRZ-B high-dose group) was “exceeded 60%”. For the same substance, the solubility in water [6] was “poorly soluble”, the “cell morphology of adipocytes (inverted microscope, FIG. 4)” value ([7]; 4 h) was “nearly all cells died” and the “cell morphology of adipocytes (inverted microscope, FIG. 4)” value ([7]; 24 h) was “nearly all cells died”.
